Experimental data: US9243225B2, “Methods of obtaining cell populations enriched with desired cells” (HADASIT MEDICAL RESEARCH SERVICES & DEVELOPMENT LIMITED, priority 2010, dated 2016)

How the values were obtained:
[1] = test system: hES1-derived mixed culture of neurons, neural precursors/progenitors (NPs) and undifferentiated cells; test: Paclitaxel treatment of hESC-derived differentiating neural cultures (morphology, immunostaining); type: cell-based, human
Procedure: hES1 colonies grown on HFF feeders in DMEM supplemented with knockout (KO) serum replacement, PenStrep, non-essential amino-acids and glutamine (Invitrogen, USA), were enzymatically detached by collagenase. Intact colonies were transferred to non-adhesive culture plates to form neurospheres in NSC medium (DMEM-F12 medium, N2, B27, PenStrep and Glutamine) supplemented with noggin (Peprotech Asia, Rehovot, Israel) and 20 ng/ml bFGF. Spheres were grown for 3-5 weeks in suspension, collected, triturated and plated on 10 μg laminin/poly-D-lysine-coated coverslips in NSC medium supplemented with FGF8 and SHH for 6-8-days. At this stage, cells were treated with the appropriate concentrations of paclitaxel for 18-24 hours. Paclitaxel was then removed and cells were allowed to recuperate and continue with the differentiation process for additional 6-8 days in NSC medium with BDNF, GDNF, TGFβ3, NT4, cAMP, ascorbic acid.
Alternatively, cells at the end of the differentiation process—the cells are grown as spheres in suspension for 3-5 weeks and 2 more weeks as adherent culture: 1 week FGF8/SHH+1 week factors) are subjected to paclitaxel treatment.
Paclitaxel was added to cells at 2 ranges of concentrations of 0.2-20 nM and 100-500 nM. Cells are incubated at 37° C., in 5% CO2, 5% O2. Incubation times vary between 2 hours and 48 hours.

[2] = test system: tumor-forming cells in transplanted hESC-derived cell preparations; test: Transplantation of paclitaxel-treated differentiated hESC into 6-OH dopamine-lesioned (Parkinsonian) rats; type: in vivo, rat
Procedure: 6-Hydroxydopamine (8 μg/rat) was stereotaxically injected (in a 4 μL solution) into the right substantia nigra of male Sprague-Dawley rats weighing 250-280 g; coordinates of injection: P=4.8, L=1.7, H=−8.6 from bregma. Fourteen days after 6-hydroxydopamine injection, rats were selected for transplantation if they had >350 rotations per hour after s.c. injection of apomorphine ([…]) (apomorphine being injected after 14 days) and, if 2 days later (after apomorphine injection) they also had >360 (mean 520±38) rotations per hour after i.p. injection of D-amphetamine (4 mg/kg).
Two to five days later (after the D-amphetamine injection), differentiated hESC that were induced according to the above specified protocols, either paclitaxel-treated or control-treated (DMSO), were detached with collagenase and were transplanted, 400,000 cells in 12 μL/animal along two tracts per striatum (coordinates: antero-medial tract, A=1, L=2, H=−7.5 to −4; posterio-lateral tract, A−P=0, L=3.5, H=−7.5 to −4.5). All rats received daily i.p. injections of 10 mg cyclosporine A per kg (Sandimmune; Novartis, Basel, Switzerland).
Rats were euthanized by overdose of pentobarbital and perfused with 4% paraformaldehyde saline. Serial 8 μm coronal frozen sections were prepared. […]

CC(=O)O[C@H]1C(=O)[C@@]2(C)[C@H]([C@H](OC(=O)c3ccccc3)[C@]3(O)C[C@H](OC(=O)[C@H](O)[C@@H](NC(=O)c4ccccc4)c4ccccc4)C(C)=C1C3(C)C)[C@]1(OC(C)=O)CO[C@@H]1C[C@@H]2O [paclitaxel]
effect on mature cells with typical neuronal morphology ([1]; after treatment with paclitaxel, FIG. 1C): unaffected by the treatment | effect on undifferentiated cells and early neural progenitors that form rosette structures ([1]; after treatment with paclitaxel, FIGS. 1A-1C): undergo apoptosis | β-III tubulin expressing cells (neuronal marker) in culture ([1]; mixed culture of neurons and NPs after paclitaxel treatment, FIG. 2C): enriched for β-III tubulin expressing cells | nestin-positive cells (NP marker) in culture ([1]; mixed culture of neurons and NPs after paclitaxel treatment, FIG. 2D): reduced number of nestin-positive cells | tumor development after transplantation of treated cells ([2]; cell preparations treated with 20-50 nM paclitaxel, 9 animals, 5-8 weeks post transplantation, all 6 controls with untreated cells developed large tumors): none developed tumors | tyrosine hydroxylase (dopaminergic marker) expression of grafted paclitaxel-treated cells ([2]; grafted cells marked by human nuclear antigen in rat striatum, FIGS. 4A-4C): express tyrosine hydroxylase
